In patent US20080274522A1, “METHOD FOR THE PRODUCTION OF 2-BUTANONE” (priority 2007, published 2008):
Like-named read-outs stand apart in the source and are kept apart here.

Columns and labels:
[1] = system: Lactobacillus plantarum PN0512; test: Growth of L. plantarum PN0512 in the presence of butanols at different temperatures (OD600); type: cell-based; design: key to Growth of L. plantarum PN0512 in the presence of 1-butanol / Growth of L. plantarum PN0512 in the presence of isobutanol / Growth of L. plantarum PN0512 in the presence of 2-butanol: +: growth observed as an increase in OD600.; −: no growth observed, i.e. no change in OD600
Description: Tolerance levels of bacterial strain Lactobacillus plantarum PN0512 (ATCC # PTA-7727) were determined at 25° C., 30° C. and 37° C. as follows. The strain was cultured in S30L medium (i.e., 10 mM ammonium sulfate, 5 mM potassium phosphate buffer, pH 7.0, 50 mM MOPS, pH 7.0, 2 mM MgCl2, 0.7 mM CaCl2, 50 μM MnCl2, 1 μM FeCl3, 1 μM ZnCl2, 1.72 μM CuCl2, 2.53 μM COCl2, 2.42 μM Na2MoO4, 2 μM thiamine hydrochloride, 10 mM glucose, and 0.2% yeast extract). An overnight culture in the absence of any test compound was started in 15 mL of the S30L medium in a 150 mL flask, with incubation at 37° C. in a shaking water bath. The next morning, the overnight culture was diluted into three 500 mL flasks containing 150 mL of fresh medium to an initial OD600 of about 0.08. Each flask was incubated in a shaking water bath, one each at 25° C., 30° C. and 37° C. Each large culture was allowed to acclimate at the test temperature for at least 0.5 h. […] Growth was followed by measuring OD600 for six hours after addition of the compounds.

[2] = system: E. coli (strain MG1655); details: for % Survival at 30° C. / % Survival at 37° C. / % Survival at 0° C.: 1 h; for Concentration at which E. coli cells were killed: one hour
Description: (§1) Using overnight cultures or cells from plates, 30 mL cultures of the microorganisms to be tested were started in the following culture media: • E. coli—Miller's LB medium (Teknova, Half Moon Bay, Calif.): • L. plantarum PN0512—Lactobacilli MRS Broth (BD Diagnostic Systems, Sparks, Md.). The E. coli and L. plantarum cultures were grown at 37° C. aerobically with shaking until the cultures were in log phase and the OD600 was between 0.6 and 0.8. A 50 μL aliquot of each culture was removed for a time zero sample. The remainder of the cultures was divided into six 5 mL portions and placed in six small incubation flasks or tubes. […] The flasks or tubes were incubated at a desired temperature, aerobically without shaking for 1 h. After the incubation with one of the butanols, 2 μL from each of the flasks (and in addition 2 μL of the time zero sample of the culture before exposure to one of the butanols) were pipetted into the “head” wells of a 96 well (8×12) microtiter plate, each containing 198 μL of LB medium to give a 10^−2 dilution of the culture. Subsequently, 10^−3, 10^−4, 10^−5, and 10^−6 serial dilutions of the cultures were prepared as follows. The 10^−3 dilution was prepared by pipetting 20 μL of the sample from the head well into the 180 μL LB medium in the next well using a multi-channel pipette. This procedure was repeated 3 more times on successive wells to prepare the 10^−4, 10^−5, and 10^−6 dilutions. After each liquid transfer, the solution in the well was mixed by pipetting it up and down 10 times with the multi-channel pipetor. A 5 μL aliquot of each dilution was spotted onto an LB plate using a multi-channel pipette starting with the 10^−6 dilution, then the 10^−5, and so on working from more to less dilute without a change of tips. The spots were allowed to soak into the agar by leaving the lid of the plate slightly open for 15 to 30 min in a sterile transfer hood. The plates were covered, inverted, and incubated overnight at 37° C. The following day, the number of colonies in the spots were counted from the different dilutions. The number of living cells/mL in each of the original culture solutions from which the 2 μL was withdrawn was calculated and compared to the number of cells in the control untreated culture to determine the % of the cells surviving.

[3] = system: L. plantarum (strain PN0512); details: for % Survival at 37° C. / % Survival at 23° C. / % Survival at 0° C.: 1 h; for Concentration at which L. plantarum PN0512 cells were killed: one hour
Description: as §1

1-butanol
Growth of L. plantarum PN0512 in the presence of 1-butanol ([1]; 1.0 % w/v, 37° C.): +
Growth of L. plantarum PN0512 in the presence of 1-butanol ([1]; 1.2 % w/v, 37° C.): +
Growth of L. plantarum PN0512 in the presence of 1-butanol ([1]; 1.4 % w/v, 37° C.): +
Growth of L. plantarum PN0512 in the presence of 1-butanol ([1]; 1.5 % w/v, 25° C.): +
Growth of L. plantarum PN0512 in the presence of 1-butanol ([1]; 1.5 % w/v, 30° C.): +
Growth of L. plantarum PN0512 in the presence of 1-butanol ([1]; 1.5 % w/v, 37° C.): +
Growth of L. plantarum PN0512 in the presence of 1-butanol ([1]; 1.6 % w/v, 37° C.): +
Growth of L. plantarum PN0512 in the presence of 1-butanol ([1]; 1.8 % w/v, 37° C.): +
Growth of L. plantarum PN0512 in the presence of 1-butanol ([1]; 2.0 % w/v, 25° C.): +
Growth of L. plantarum PN0512 in the presence of 1-butanol ([1]; 2.0 % w/v, 30° C.): +
Growth of L. plantarum PN0512 in the presence of 1-butanol ([1]; 2.0 % w/v, 37° C.): +
Growth of L. plantarum PN0512 in the presence of 1-butanol ([1]; 2.1 % w/v, 37° C.): +
Growth of L. plantarum PN0512 in the presence of 1-butanol ([1]; 2.2 % w/v, 37° C.): +
Growth of L. plantarum PN0512 in the presence of 1-butanol ([1]; 2.3 % w/v, 37° C.): +
Growth of L. plantarum PN0512 in the presence of 1-butanol ([1]; 2.4 % w/v, 25° C.): +
Growth of L. plantarum PN0512 in the presence of 1-butanol ([1]; 2.4 % w/v, 30° C.): +
Growth of L. plantarum PN0512 in the presence of 1-butanol ([1]; 2.4 % w/v, 37° C.): −^2
Growth of L. plantarum PN0512 in the presence of 1-butanol ([1]; 2.7 % w/v, 30° C.): +
Growth of L. plantarum PN0512 in the presence of 1-butanol ([1]; 2.7 % w/v, 37° C.): −
Growth of L. plantarum PN0512 in the presence of 1-butanol ([1]; 2.9 % w/v, 25° C.): +
Growth of L. plantarum PN0512 in the presence of 1-butanol ([1]; 2.9 % w/v, 30° C.): −
Growth of L. plantarum PN0512 in the presence of 1-butanol ([1]; 2.9 % w/v, 37° C.): −
Growth of L. plantarum PN0512 in the presence of 1-butanol ([1]; 3.1 % w/v, 25° C.): +
Growth of L. plantarum PN0512 in the presence of 1-butanol ([1]; 3.1 % w/v, 30° C.): −
Growth of L. plantarum PN0512 in the presence of 1-butanol ([1]; 3.1 % w/v, 37° C.): −
Growth of L. plantarum PN0512 in the presence of 1-butanol ([1]; 3.2 % w/v, 25° C.): −
Growth of L. plantarum PN0512 in the presence of 1-butanol ([1]; 3.2 % w/v, 30° C.): −
Growth of L. plantarum PN0512 in the presence of 1-butanol ([1]; 3.3 % w/v, 25° C.): −
Growth of L. plantarum PN0512 in the presence of 1-butanol ([1]; 3.4 % w/v, 25° C.): −
Growth of L. plantarum PN0512 in the presence of 1-butanol ([1]; 3.4 % w/v, 30° C.): −
Concentration in which growth was observed ([1]; 25° C.): 3.1%
Concentration in which growth was not observed ([1]; 30° C.): 2.9%
Concentration in which growth was observed ([1]; 30° C.): 2.7%
Concentration in which growth was not observed ([1]; 37° C.): 2.4%
Concentration in which growth was observed ([1]; 37° C.): 2.3%
Growth of L. plantarum PN0512 in the presence of 1-butanol ([1]; […] w/v, 37° C.): −
Concentration with no toxic effect on E. coli cells ([2]; 0° C., one hour treatment): ≤ 4.5 % v/v
% Survival at 30° C. ([2]; 1-butanol 1 % v/v): 100%
% Survival at 37° C. ([2]; 1-butanol 1 % v/v): 72%
% Survival at 30° C. ([2]; 1-butanol 1.5 % v/v): 100%
% Survival at 37° C. ([2]; 1-butanol 1.5 % v/v): 20%
% Survival at 30° C. ([2]; 1-butanol 2 % v/v): 100%
% Survival at 37° C. ([2]; 1-butanol 2 % v/v): 0%
% Survival at 0° C. ([2]; 1-butanol 3 % v/v): 100%
% Survival at 30° C. ([2]; 1-butanol 3 % v/v): 0%
% Survival at 37° C. ([2]; 1-butanol 3 % v/v): 0%
% Survival at 0° C. ([2]; 1-butanol 4 % v/v): 100%
% Survival at 0° C. ([2]; 1-butanol […] v/v): 100%
% Survival at 37° C. ([2]; 1-butanol […] v/v): 0%
Concentration at which E. coli cells were killed ([2]; 30° C.): 3 % v/v
Concentration at which E. coli cells were killed ([2]; 37° C.): 2 % v/v
Concentration with no toxic effect on L. plantarum PN0512 cells ([3]; 0° C., one hour treatment): ≤ 4.5 % v/v
% Survival at 37° C. ([3]; 1-butanol 1 % v/v): 80%
% Survival at 37° C. ([3]; 1-butanol 1.5 % v/v): 58%
% Survival at 23° C. ([3]; 1-butanol 2 % v/v): 100%
% Survival at 37° C. ([3]; 1-butanol 2 % v/v): 29%
% Survival at 0° C. ([3]; 1-butanol 3 % v/v): 100%
% Survival at 23° C. ([3]; 1-butanol 3 % v/v): 82%
% Survival at 37° C. ([3]; 1-butanol 3 % v/v): 0%
% Survival at 0° C. ([3]; 1-butanol 4 % v/v): 100%
% Survival at 23° C. ([3]; 1-butanol 4 % v/v): 0%
% Survival at 0° C. ([3]; 1-butanol 5 % v/v): 0%
% Survival at 0° C. ([3]; 1-butanol 5.5 % v/v): 0%
% Survival at 0° C. ([3]; 1-butanol […] v/v): 100%
Concentration at which L. plantarum PN0512 cells were killed ([3]; 23° C.): 3.5 % v/v
Concentration at which L. plantarum PN0512 cells were killed ([3]; 37° C.): 2.5 % v/v
